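In this assay, cells in 96-well plates receive the compound at five concentrations for 48 hours. Endpoints are linearly interpolated between the surrounding concentrations. Here, GI50 denotes the concentration required for 50% inhibition of growth. Definition used: TGI = concentration required for complete inhibition of growth.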
Columns and labels:
Assay in all cases: NCI tumour cell line growth inhibition, 48 h
ACHN renal = system: ACHN renal
UACC-62 melanoma = system: UACC-62 melanoma
EKVX NSCLC = system: EKVX NSCLC
CAKI-1 renal = system: CAKI-1 renal
MDA-MB-435 = system: MDA-MB-435
HCT-15 colon = system: HCT-15 colon
IGROV1 ovarian = system: IGROV1 ovarian
NCI/ADR-RES ovarian = system: NCI/ADR-RES ovarian
SW-620 colon = system: SW-620 colon
HL-60(TB) leukemia = system: HL-60(TB) leukemia
MDA-MB-468 breast = system: MDA-MB-468 breast
T-47D breast = system: T-47D breast
RPMI-8226 leukemia = system: RPMI-8226 leukemia
HS 578T breast = system: HS 578T breast
SK-MEL-5 melanoma = system: SK-MEL-5 melanoma
786-0 renal = system: 786-0 renal
BT-549 breast = system: BT-549 breast
M14 melanoma = system: M14 melanoma
OVCAR-8 ovarian = system: OVCAR-8 ovarian
DU-145 prostate = system: DU-145 prostate
SK-MEL-2 melanoma = system: SK-MEL-2 melanoma
SF-295 CNS = system: SF-295 CNS
OVCAR-5 ovarian = system: OVCAR-5 ovarian
OVCAR-3 ovarian = system: OVCAR-3 ovarian
A549 NSCLC = system: A549 NSCLC
SK-OV-3 ovarian = system: SK-OV-3 ovarian
MOLT-4 leukemia = system: MOLT-4 leukemia
NCI-H460 lung = system: NCI-H460 lung
COLO 205 colon = system: COLO 205 colon
A498 renal = system: A498 renal
NCI-H226 lung = system: NCI-H226 lung
SK-MEL-28 melanoma = system: SK-MEL-28 melanoma
CCRF-CEM leukemia = system: CCRF-CEM leukemia
PC-3 prostate = system: PC-3 prostate
SF-539 CNS = system: SF-539 CNS
NCI-H23 lung = system: NCI-H23 lung
U251 CNS = system: U251 CNS
K-562 leukemia = system: K-562 leukemia
SF-268 CNS = system: SF-268 CNS
OVCAR-4 ovarian = system: OVCAR-4 ovarian
HCT-116 colon = system: HCT-116 colon
TK-10 renal = system: TK-10 renal
NCI-H522 lung = system: NCI-H522 lung
HOP-92 NSCLC = system: HOP-92 NSCLC
SR leukemia = system: SR leukemia
UACC-257 melanoma = system: UACC-257 melanoma
RXF 393 renal = system: RXF 393 renal
UO-31 renal = system: UO-31 renal
SNB-19 CNS = system: SNB-19 CNS
SNB-75 CNS = system: SNB-75 CNS
HOP-62 NSCLC = system: HOP-62 NSCLC
MCF7 breast = system: MCF7 breast
SN12C renal = system: SN12C renal
MDA-MB-231 breast = system: MDA-MB-231 breast
HCC-2998 colon = system: HCC-2998 colon
KM12 colon = system: KM12 colon
MALME-3M melanoma = system: MALME-3M melanoma

With O=C1CCC(N2C(=O)c3cccc(NCCCCCC(=O)N4CCN(c5ccc6nc7c(nc6c5C(F)(F)F)C(=O)c5ncccc5C7=O)CC4)c3C2=O)C(=O)N1 (centres undefined) the GI50 (ACHN renal) was 1090 nM, the TGI (ACHN renal) was 2530 nM and the GI50 (UACC-62 melanoma) was 529 nM. It also gave a TGI (UACC-62 melanoma) of 1540 nM, a GI50 (EKVX NSCLC) of 1300 nM and a TGI (EKVX NSCLC) of 3920 nM. It also gave a GI50 (CAKI-1 renal) of 889 nM, a TGI (CAKI-1 renal) of 2200 nM and a GI50 (MDA-MB-435) of 555 nM. The TGI (MDA-MB-435) was 1540 nM, the GI50 (HCT-15 colon) was 81.9 nM and the TGI (HCT-15 colon) was 813 nM. It also gave a GI50 (IGROV1 ovarian) of 827 nM, a TGI (IGROV1 ovarian) of 1830 nM and a GI50 (NCI/ADR-RES ovarian) of 2070 nM. It also gave a TGI (NCI/ADR-RES ovarian) of 20800 nM, a GI50 (SW-620 colon) of 368 nM and a TGI (SW-620 colon) of 1810 nM. For the same compound, the GI50 (HL-60(TB) leukemia) was 919 nM, the TGI (HL-60(TB) leukemia) was over 18800 nM and the GI50 (MDA-MB-468 breast) was 1180 nM. It also gave a TGI (MDA-MB-468 breast) of 2680 nM, a GI50 (T-47D breast) of 1560 nM and a TGI (T-47D breast) of 5290 nM. For the same compound, the GI50 (RPMI-8226 leukemia) was 741 nM, the TGI (RPMI-8226 leukemia) was 4540 nM and the GI50 (HS 578T breast) was 946 nM. It also gave a TGI (HS 578T breast) of 3920 nM, a GI50 (SK-MEL-5 melanoma) of 296 nM and a TGI (SK-MEL-5 melanoma) of 1040 nM. It also gave a GI50 (786-0 renal) of 1590 nM, a TGI (786-0 renal) of 4580 nM and a GI50 (BT-549 breast) of 244 nM. It also gave a TGI (BT-549 breast) of 1460 nM, a GI50 (M14 melanoma) of 130 nM and a TGI (M14 melanoma) of 292 nM. It also gave a GI50 (OVCAR-8 ovarian) of 1300 nM, a TGI (OVCAR-8 ovarian) of 3670 nM and a GI50 (DU-145 prostate) of 163 nM. The TGI (DU-145 prostate) was 398 nM, the GI50 (SK-MEL-2 melanoma) was 1030 nM and the TGI (SK-MEL-2 melanoma) was 2160 nM. It also gave a GI50 (SF-295 CNS) of 150 nM, a TGI (SF-295 CNS) of 384 nM and a GI50 (OVCAR-5 ovarian) of 1010 nM. For the same compound, the TGI (OVCAR-5 ovarian) was 2170 nM, the GI50 (OVCAR-3 ovarian) was 1190 nM and the TGI (OVCAR-3 ovarian) was 3210 nM. The GI50 (A549 NSCLC) was 193 nM, the TGI (A549 NSCLC) was 712 nM and the GI50 (SK-OV-3 ovarian) was 768 nM. For the same compound, the TGI (SK-OV-3 ovarian) was 2200 nM, the GI50 (MOLT-4 leukemia) was 1500 nM and the TGI (MOLT-4 leukemia) was over 17800 nM. The GI50 (NCI-H460 lung) was 141 nM, the TGI (NCI-H460 lung) was 287 nM and the GI50 (COLO 205 colon) was 175 nM. The TGI (COLO 205 colon) was 475 nM, the GI50 (A498 renal) was 1200 nM and the TGI (A498 renal) was 2290 nM. It also gave a GI50 (NCI-H226 lung) of 160 nM, a TGI (NCI-H226 lung) of 1100 nM and a GI50 (SK-MEL-28 melanoma) of 386 nM. It also gave a TGI (SK-MEL-28 melanoma) of 1290 nM, a GI50 (CCRF-CEM leukemia) of 1970 nM and a TGI (CCRF-CEM leukemia) of over 70500 nM. It also gave a GI50 (PC-3 prostate) of 376 nM, a TGI (PC-3 prostate) of over 19000 nM and a GI50 (SF-539 CNS) of 1000 nM. The TGI (SF-539 CNS) was 1950 nM, the GI50 (NCI-H23 lung) was 138 nM and the TGI (NCI-H23 lung) was 315 nM. It also gave a GI50 (U251 CNS) of 177 nM, a TGI (U251 CNS) of 577 nM and a GI50 (K-562 leukemia) of 1010 nM. For the same compound, the TGI (K-562 leukemia) was over 70500 nM, the GI50 (SF-268 CNS) was 1360 nM and the TGI (SF-268 CNS) was 5050 nM. The GI50 (OVCAR-4 ovarian) was 1490 nM, the TGI (OVCAR-4 ovarian) was 4830 nM and the GI50 (HCT-116 colon) was 1780 nM. The TGI (HCT-116 colon) was 4620 nM, the GI50 (TK-10 renal) was 1920 nM and the TGI (TK-10 renal) was 5670 nM. For the same compound, the GI50 (NCI-H522 lung) was 1020 nM, the TGI (NCI-H522 lung) was 2200 nM and the GI50 (HOP-92 NSCLC) was 1200 nM. For the same compound, the TGI (HOP-92 NSCLC) was 5810 nM, the GI50 (SR leukemia) was 227 nM and the TGI (SR leukemia) was over 70500 nM. It also gave a GI50 (UACC-257 melanoma) of 1060 nM, a TGI (UACC-257 melanoma) of 2170 nM and a GI50 (RXF 393 renal) of 981 nM. For the same compound, the TGI (RXF 393 renal) was 2060 nM, the GI50 (UO-31 renal) was 892 nM and the TGI (UO-31 renal) was 1810 nM. It also gave a GI50 (SNB-19 CNS) of 149 nM, a TGI (SNB-19 CNS) of 393 nM and a GI50 (SNB-75 CNS) of 743 nM. It also gave a TGI (SNB-75 CNS) of 1590 nM, a GI50 (HOP-62 NSCLC) of 321 nM and a TGI (HOP-62 NSCLC) of 1400 nM. The GI50 (MCF7 breast) was 197 nM, the TGI (MCF7 breast) was 705 nM and the GI50 (SN12C renal) was 192 nM. The TGI (SN12C renal) was 738 nM, the GI50 (MDA-MB-231 breast) was 23.4 nM and the TGI (MDA-MB-231 breast) was 2500 nM. The GI50 (HCC-2998 colon) was 275 nM, the TGI (HCC-2998 colon) was 1040 nM and the GI50 (KM12 colon) was 1430 nM. It also gave a TGI (KM12 colon) of 3590 nM, a GI50 (MALME-3M melanoma) of 76.2 nM and a TGI (MALME-3M melanoma) of 541 nM.

Reference: PubChem BioAssay (NCI)
